Laboratory results: US12251417B2, “Antimicrobial compounds from the genus Delftia” (Ministry of Health, State of Israel, priority 2017, dated 2025)
Values after ≈ are worked out from the molar mass of the structure shown. Square brackets hold non-standard residues; d marks the D form. Peptide text beside a SMILES is read from it. * marks the point of attachment. ξ: configuration not given here. NH(1-OH-2-oxopiperidin-3-yl) = O=C1C(N*)CCCN1O; ξOrn(N(OH)CHO) = NC(CCCN(O)C=O)C(=O)O; ξAsp(3ξ-OH) = NC(C(=O)O)C(O)C(=O)O; X1 = CC(N)C(O)C(C)C(=O)*; Dhb = C/C=C(\N)C(=O)O

Key:
[1] = system: vancomycin resistant enterococci (VRE); experiment: Inhibition of VRE by Delftibactin A alone and with antibiotics; type: cell-based
Source text: FIG. 33 is a graph illustrating that Delftibactin A inhibits Vancomycin Resistant Enterococci (VRE).

[2] = system: Deftia strain 2189; experiment: Delftibactin A as carrier of gallium; type: cell-based, Delftia; details: with gallium
Source text: FIG. 36 is a graph illustrating that Delftibactin A can be used as a carrier of inhibitory antimicrobial agents such as gallium to inhibit harmful bacterial strains such as Deftia strain 2189.

[3] = system: HepG2; experiment: MTT cytotoxicity assay; type: cell-based, human; details: 24/72 hours
Source text: (§1) MTT (3-(4,5-Dimethylthiazol-2-yl)-2,5-diphenyltetrazolium bromide) is a colorimetric assay for measuring the activity of cellular enzymes that reduce the tetrazolium dye, MTT, to its insoluble formazan, giving a purple color. This assay measure mitochondrial metabolic activity via NAD(P)Hdependent cellular oxidoreductase enzymes and may, under defined conditions, reflect the number of viable cells. The cells used in this study were: Hep G2 (HB-8065) is a perpetual cell line which was derived from the liver tissue of a person with a well-differentiated hepatocellular carcinoma. THLE-2 is a perpetual cell line which was derived from the liver epithelial cells of an adult human transformed with SV40 large T antigen.
(§2) The assay: cell concentration treatment 24 hours: Cells were seeded at a concentration of 2×10^4 cells/well in 200 μl culture medium and incubated at 37° C. in 5% CO2. Cell concentration treatment 72 hours: Cells were seeded at a concentration of 1×10^4 cells/well in 200 μl culture medium and incubated at 37° C. in 5% CO2. After 24 hours, the medium was replaced with a final volume of 200 μl and 1 μl of compound (dilution 1/200) and controls were added to the plates. […]
(§3) When extracts/compounds and controls were added, plates were incubated at 37° C. in 5% CO2 incubator for 24/72 hours. […] The absorbance was measured using a multireader Victor™ at a wavelength of 570 nm.

[4] = system: THLE2; experiment: MTT cytotoxicity assay; type: cell-based, human; details: 24/72 hours
Source text: as §1, §2, §3

[5] = system: C. albicans ATCC64124; experiment: Broth microdilution MIC; type: cell-based; details: lowest concentration that inhibited ≥50% of growth after overnight incubation
Procedure: Deftibactin A was serially diluted in DMSO with a dilution factor of 2, to provide 10 concentrations for all the assays. The MIC is defined as the lowest concentration of compound that inhibited ≥90% or ≥50% of the growth of a microorganism after overnight incubation. Genedata Screener software (Genedata, Inc., Basel, Switzerland) was used to analyze the data and to determine the MICs and calculate the RZ′ factor, to estimate the robustness of the assays. Delftibactin A was tested on two different days and in triplicate.
Broth microdilution was used to determine the minimal inhibitory concentration (MIC) according to the standards of the Clinical and Laboratory Standards Institute (CLSI) or the European Committee on Antimicrobial Susceptibility Testing (EUCAST). Cation-adjusted Mueller-Hinton broth (CAMHB) was used with inoculum of about 5×10^5 cfu ml^−1 of the tested pathogen. Direct suspension of overnight colonies into CAMHB was used for the generation of the bacterial suspension. The tested inhibited compound or supernatant was used in doubling dilutions in 50 μl of CAMHB and inoculated with an equal amount of bacteria in the broth.

C/C=C(\NC(=O)CNC(=O)C(NC(=O)C(NC(=O)C(C)C(O)C(C)N)C(O)C(=O)O)C(C)O)C(=O)NC(CCCN(O)C=O)C(=O)NC(CO)C(=O)NC(CCCN=C(N)N)C(=O)NC1CCCN(O)C1=O (stereo not shown) [Delftibactin A] (X1-[ξAsp(3ξ-OH)]TG[Dhb][ξOrn(N(OH)CHO)]SR-{NH(1-OH-2-oxopiperidin-3-yl)}; configuration not given here)
inhibition of vancomycin resistant enterococci (VRE) [1]: inhibits
combined antimicrobial effect with clarithromycin on VRE ([1]; Delftibactin A 10 μM): additive combined antimicrobial effect
combined antimicrobial effect with rifampicin on VRE ([1]; Delftibactin A 10 μM): additive combined antimicrobial effect
inhibition of Deftia strain 2189 as carrier of gallium [2]: inhibit
cytotoxic activity (MTT) [3]: not have cytotoxic activity
cytotoxic activity (MTT) [4]: not have cytotoxic activity
MIC50 [5]: 16 µg/mL (≈ 15.5 µM)
